Assay results as given in patent publication US20210393565A1, “PREPARATION FOR USE TO INCREASE THE FORMATION OF ONE OR MORE SPECIALIZED PRO-RESOLVING LIPID MEDIATORS (SPM)” (Evonik Operations GmbH, priority 2018, published 2021).

Assays:
Assay type in all cases: cell-based
[1] = system: Bacillus megaterium DSM 32963 cells; assay: Lipidometabolomics (UPLC-MS/MS) of culture supernatants with AvailOm, dissolved or as dispersion; conditions: for Extracellular concentration of PUFA oxygenation product: − bile acids, net after subtraction of cell-free control
Excerpt: (§1) Bacterial supernatant samples were subjected to lipid extraction using RP-phase solid phase extraction and subsequently analyzed by ultra performance liquid chromatography ESI tandem mass spectrometry (UPLC-MS/MS) according to a published procedure. Under these conditions approximately 40 different LM, including 5-hydroxy-eicosapentaenoic acid 5-HEPE, 8-HEPE, 11-HEPE, 12-HEPE, 15-HEPE, 18-HEPE, 5-hydroxy-eicosatetraenoic acid (5-HETE), 8-HETE, 11-HETE, 12-HETE, 15-HETE, 4-hydroxy-DHA (4-HDHA), 7-HDHA, 13-HDHA, 14-HDHA, 17-HDHA, lipoxin A4 (LXA4), LXB4, resolvin E1 (RvE1), RvE3, resolvin D1-5 (RvD1-5), AT-RvD1, RvD2, protectin D1 (PD1), AT-PD1, maresin 1(MaR1), MaR2, plus 4 fatty acid substrates can be detected with a lower limit of detection of 1 pg.
To investigate if Bacillus megaterium is capable of producing other PUFA oxygenation products in addition to 18-HEPE, a lipidometabolomics screening of supernatants from Bacillus megaterium strain 32963 cultured as in example 4 with AvailOm® was performed, either dissolved or in a dispersion formulation, with or without bile acids. Cell-free preparations of AvailOm® formulations were treated and analyzed in parallel and served as controls for non-enzymatic, spontaneous formation of oxygenation products. Values given in table 6 display net concentrations of products formed, i.e. after subtraction of control values. […] Concentrations of several SPM exceed by far the concentrations of SPM found in human plasma samples, which are typically in a range of ˜20-100 pg/ml. For comparison, human breast milk contains ˜6.000 pg/ml RvE1 and ˜10.000 pg/ml RvD1 [42].

[2] = system: Bacillus megaterium DSM 33296 cells; assay: Lipidometabolomics of culture supernatants with AvailOm dispersion formulation; conditions: Bacillus megaterium DSM 33296, AvailOm dispersion formulation; net concentration
Excerpt: as §1
(§2) 47 additional Bacillus megaterium strains sourced from various habitats were screened for their SPM production capacity to determine if this is a general phenomenon of the species Bacillus megaterium and to detect strain-specific differences in types and quantities of SPM being produced. Cells were cultured as detailed in example 4, with dispersion formulation of AvailOm® serving as omega-3 fatty acid source. Cell-free preparations of AvailOm® were treated and analyzed in parallel and served as controls for non-enzymatic, spontaneous formation of oxygenation products. It was observed that all tested strains produced measurable (>1 pg/ml) amounts of various SPM and precursors thereof, that these amounts were hugely different between the strains (up to 2.000 fold), and that concentrations of RvE3 were particularly high (up to 1.3 μg/ml) in most of the strains.
(§3) Values given in table 7 display net concentrations of PUFA oxygenation products formed by two of the top performing strains, Bacillus megaterium DSM 33296 and Bacillus megaterium DSM 33299.

[3] = system: Bacillus megaterium DSM 33299 cells; assay: as above; conditions: Bacillus megaterium DSM 33299, AvailOm dispersion formulation; net concentration
Excerpt: as §1, §2, §3

RvD1
Extracellular concentration of PUFA oxygenation product ([1]; AvailOm dispersion): 1863 pg/mL | Extracellular concentration of PUFA oxygenation product ([1]; AvailOm): 598 pg/mL | Extracellular concentration of PUFA oxygenation product [2]: 3626 pg/mL | Extracellular concentration of PUFA oxygenation product [3]: 4389 pg/mL

CCCCC/C=C\C[C@@H](O)/C=C/C=C/C=C\[C@@H](O)CCCC(=O)O [LTB4, leukotriene B4]
Extracellular concentration of PUFA oxygenation product ([1]; AvailOm): 171 pg/mL | Extracellular concentration of PUFA oxygenation product [2]: 1769 pg/mL | Extracellular concentration of PUFA oxygenation product [3]: 2206 pg/mL

CC/C=C\C[C@H](O)[C@H](O)/C=C/C=C/C=C\C=C\[C@@H](O)C/C=C\CCC(=O)O [RvD2]
Extracellular concentration of PUFA oxygenation product ([1]; AvailOm dispersion): 99 pg/mL | Extracellular concentration of PUFA oxygenation product ([1]; AvailOm): 87 pg/mL | Extracellular concentration of PUFA oxygenation product [2]: 265 pg/mL | Extracellular concentration of PUFA oxygenation product [3]: 428 pg/mL

CC/C=C\CC(O)/C=C/C=C\C/C=C\C/C=C\CCCC(=O)O (stereo not shown) [15-HEPE, 15-hydroxy-eicosapentaenoic acid]
abundance with dispersion formulation and/or bile acids compared to AvailOm without both (in words) [1]: lower | Extracellular concentration of PUFA oxygenation product ([1]; AvailOm): 7536 pg/mL | Extracellular concentration of PUFA oxygenation product [2]: 256797 pg/mL | Extracellular concentration of PUFA oxygenation product [3]: 151168 pg/mL

CC/C=C\C[C@H](O)/C=C/C=C\C[C@@H](O)/C=C/C=C/C=C\[C@@H](O)CCC(=O)O [RvD3]
Extracellular concentration of PUFA oxygenation product ([1]; AvailOm dispersion): 8409 pg/mL | Extracellular concentration of PUFA oxygenation product ([1]; AvailOm): 178 pg/mL | Extracellular concentration of PUFA oxygenation product [2]: 381 pg/mL | Extracellular concentration of PUFA oxygenation product [3]: 941 pg/mL

CCCCC/C=C\C/C=C\C=C\C(O)C/C=C\CCCC(=O)O (stereo not shown) [8-HETE, 8-hydroxy-eicosatetraenoic acid]
abundance with dispersion formulation and/or bile acids compared to AvailOm without both (in words) [1]: lower | Extracellular concentration of PUFA oxygenation product [2]: 24207 pg/mL | Extracellular concentration of PUFA oxygenation product [3]: 15941 pg/mL

CC/C=C\C[C@@H](O)/C=C/C=C\C=C\C=C\[C@@H](O)[C@@H](O)C/C=C\CCC(=O)O [AT-RvD1, Aspirin-triggered RvD1]
Extracellular concentration of PUFA oxygenation product ([1]; AvailOm dispersion): 4932 pg/mL | Extracellular concentration of PUFA oxygenation product ([1]; AvailOm): 519 pg/mL | Extracellular concentration of PUFA oxygenation product [2]: 9612 pg/mL | Extracellular concentration of PUFA oxygenation product [3]: 48243 pg/mL

5-hydroxy-eicosatetraenoic acid [5-HETE]
abundance with dispersion formulation and/or bile acids compared to AvailOm without both (in words) [1]: lower | Extracellular concentration of PUFA oxygenation product ([1]; AvailOm): 13 pg/mL | Extracellular concentration of PUFA oxygenation product [2]: 15434 pg/mL | Extracellular concentration of PUFA oxygenation product [3]: 9356 pg/mL

CCCCC[C@H](O)/C=C/C=C\C=C\C=C\[C@@H](O)[C@@H](O)CCCC(=O)O [LXA4, lipoxin A4]
Extracellular concentration of PUFA oxygenation product [2]: 1157 pg/mL | Extracellular concentration of PUFA oxygenation product [3]: 1430 pg/mL

CC/C=C\C/C=C\C[C@H](O)\C=C/C=C/C=C/[C@H](O)C/C=C\CCC(=O)O [MaR1, maresin 1]
Extracellular concentration of PUFA oxygenation product ([1]; AvailOm dispersion): 145 pg/mL | Extracellular concentration of PUFA oxygenation product ([1]; AvailOm): 114 pg/mL | Extracellular concentration of PUFA oxygenation product [2]: 1161 pg/mL | Extracellular concentration of PUFA oxygenation product [3]: 1576 pg/mL

12-hydroxy-eicosapentaenoic acid [12-HEPE]
abundance with dispersion formulation and/or bile acids compared to AvailOm without both (in words) [1]: lower | Extracellular concentration of PUFA oxygenation product ([1]; AvailOm): 4413 pg/mL | Extracellular concentration of PUFA oxygenation product [2]: 124701 pg/mL | Extracellular concentration of PUFA oxygenation product [3]: 79699 pg/mL

CCC=CCC=CCC=CCC=CC=CC(O)CCCC(=O)O (stereo not shown) [5-HEPE, 5-hydroxy-eicosapentaenoic acid]
abundance with dispersion formulation and/or bile acids compared to AvailOm without both (in words) [1]: lower | Extracellular concentration of PUFA oxygenation product ([1]; AvailOm): 2253 pg/mL | Extracellular concentration of PUFA oxygenation product [2]: 395188 pg/mL | Extracellular concentration of PUFA oxygenation product [3]: 989691 pg/mL

CC/C=C\C[C@H](O)/C=C/C=C\C/C=C\C=C\[C@@H](O)C/C=C\CCC(=O)O [RvD5]
Extracellular concentration of PUFA oxygenation product ([1]; AvailOm dispersion): 9016 pg/mL | Extracellular concentration of PUFA oxygenation product ([1]; AvailOm): 68 pg/mL | Extracellular concentration of PUFA oxygenation product [2]: 15079 pg/mL | Extracellular concentration of PUFA oxygenation product [3]: 34168 pg/mL

CCCCC/C=C\C[C@@H](O)/C=C/C=C/C=C/[C@@H](O)CCCC(=O)O [t-LTB4]
Extracellular concentration of PUFA oxygenation product ([1]; AvailOm dispersion): 667 pg/mL | Extracellular concentration of PUFA oxygenation product ([1]; AvailOm): 360 pg/mL | Extracellular concentration of PUFA oxygenation product [2]: 1780 pg/mL | Extracellular concentration of PUFA oxygenation product [3]: 4181 pg/mL

CCC(O)/C=C/C=C\C/C=C\C/C=C\C/C=C\CCCC(=O)O (stereo not shown) [18-HEPE, 18-hydroxy-eicosapentaenoic acid]
abundance with dispersion formulation and/or bile acids compared to AvailOm without both (in words) [1]: lower | Extracellular concentration of PUFA oxygenation product ([1]; AvailOm): 24463 pg/mL | Extracellular concentration of PUFA oxygenation product [2]: 391397 pg/mL | Extracellular concentration of PUFA oxygenation product [3]: 217725 pg/mL

11-hydroxy-eicosapentaenoic acid [11-HEPE]
abundance with dispersion formulation and/or bile acids compared to AvailOm without both (in words) [1]: lower | Extracellular concentration of PUFA oxygenation product ([1]; AvailOm): 4659 pg/mL | Extracellular concentration of PUFA oxygenation product [2]: 124860 pg/mL | Extracellular concentration of PUFA oxygenation product [3]: 63306 pg/mL

CC/C=C\C[C@@H](O)\C=C/C=C/C=C/[C@H](O)C/C=C\C/C=C\CCC(=O)O [AT-PD1 1, Aspirin-triggered PD1]
Extracellular concentration of PUFA oxygenation product ([1]; AvailOm dispersion): 247 pg/mL | Extracellular concentration of PUFA oxygenation product ([1]; AvailOm): 96 pg/mL | Extracellular concentration of PUFA oxygenation product [2]: 4558 pg/mL | Extracellular concentration of PUFA oxygenation product [3]: 10317 pg/mL

9-hydroxyoctadecadienoic acid [9-HODE]
abundance with dispersion formulation and/or bile acids compared to AvailOm without both (in words) [1]: lower | Extracellular concentration of PUFA oxygenation product ([1]; AvailOm): 43 pg/mL

CC/C=C\C[C@H](O)/C=C/C=C\C=C\[C@@H](O)C/C=C\C/C=C\CCC(=O)O [PDX 1]
Extracellular concentration of PUFA oxygenation product ([1]; AvailOm dispersion): 19542 pg/mL | Extracellular concentration of PUFA oxygenation product ([1]; AvailOm): 109 pg/mL | Extracellular concentration of PUFA oxygenation product [2]: 78345 pg/mL | Extracellular concentration of PUFA oxygenation product [3]: 138918 pg/mL

CC/C=C\C/C=C\C[C@H](O)[C@H](O)/C=C/C=C/C=C\C/C=C\CCC(=O)O [MaR2, maresin 2]
Extracellular concentration of PUFA oxygenation product ([1]; AvailOm dispersion): 197 pg/mL | Extracellular concentration of PUFA oxygenation product ([1]; AvailOm): 120 pg/mL | Extracellular concentration of PUFA oxygenation product [2]: 1522 pg/mL | Extracellular concentration of PUFA oxygenation product [3]: 1233 pg/mL

CC/C=C\C[C@H](O)/C=C\C=C\C/C=C/C=C/C=C/C(O)[C@@H](O)CCC(=O)O (stereo partly shown) [RvD4]
Extracellular concentration of PUFA oxygenation product ([1]; AvailOm): 3681 pg/mL | Extracellular concentration of PUFA oxygenation product [2]: 1986 pg/mL | Extracellular concentration of PUFA oxygenation product [3]: 2523 pg/mL

CCCCC[C@H](O)[C@H](O)/C=C/C=C/C=C\C=C\[C@@H](O)CCCC(=O)O [LXB4, lipoxin B4]
Extracellular concentration of PUFA oxygenation product ([1]; AvailOm dispersion): 76301 pg/mL

CC/C=C\C/C=C\C/C=C\C/C=C\C=C\C(O)C/C=C\CCC(=O)O (stereo not shown) [7-HDHA, 7-hydroxy-DHA]
Extracellular concentration of PUFA oxygenation product [2]: 202129 pg/mL | Extracellular concentration of PUFA oxygenation product [3]: 243080 pg/mL

CC/C=C\C[C@H](O)[C@@H](O)/C=C/C=C/C=C\C=C\[C@@H](O)CCCC(=O)O [LXB5, lipoxin B5]
Extracellular concentration of PUFA oxygenation product ([1]; AvailOm dispersion): 669042 pg/mL | Extracellular concentration of PUFA oxygenation product ([1]; AvailOm): 2376 pg/mL
